The results in this text go back to article PMC8223974, “Anti-Cancer and Immunomodulatory Activity of a Polyethylene Glycol-Betulinic Acid Conjugate on Pancreatic Cancer Cells” (Life, 2021).

Several values for one entry are separate records, joined by “and”; a condition that tells them apart may be missing. Equal entries are not always repeated.

The subject of series [1] is MIA PaCa-2 cells. As to the kind of experiment: XTT cytotoxicity assay on MIA PaCa-2 cells. It counts as cell-based. The conditions noted are these: 72 h. The method, then:
(§1) The cytotoxic effect of BA and PEG–BA was assessed using the 2,3-bis-(2-methoxy-4-nitro-5-sulfophenyl)-2H-tetrazolium-5-carboxanilide (XTT) assay, an improved tetrazolium dye based assay that obviates the solubilisation step [41]. A concentration of 1 × 10^5 cells/mL each of adherent MIA PaCa-2 and Vero cells were seeded into 96-well plates (BD Biosciences, San Diego, California, USA) overnight before treatment with the compounds at concentrations ranging from 0.4 to 100 µM for 72 h. Doxorubicin (0.2 µg/mL) was used as a positive control for cell death assessment and DMSO was used as a vehicle control. After treatment, washed cells (433× g, 5 min, 25 °C) were exposed to 125 µL of complete DMEM containing 25 µL of XTT solution and incubated (37 °C, 5% CO2, 95% humidity) for 4 h. The optical density of the mixture was measured at 450 nm with a background at 690 nm using a Multiskan Ascent 96/384 microplate reader (Labsystem, Vantaa, Finland). Cell viability was determined as a percentage relative to the vehicle control. The IC50 was then calculated using GraphPad Prism 6 (GraphPad Software, Inc, San Diego, CA, USA). The selectivity index (IC50 Vero cells/IC50 MIA PaCa-2) and potentiation factor (PF50) at 50% growth inhibition (IC50) were also determined. The PF50 is the IC50 value of free drug divided by the IC50 value obtained from a combination of drugs, which is the polymer drug conjugate in this case. Statistical significance was calculated using a two-way analysis of variant (ANOVA) and the Bonferroni post-test to compare replicate means in GraphPad Prism 6 (GraphPad Software, Inc, San Diego, CA, USA). A p < 0.05 was considered to be statistically significant.

Another series concerns Vero cells. Description: XTT cytotoxicity assay on Vero cells. It counts as cell-based. Conditions: 72 h. The protocol: as §1, with “The selectivity index (IC50 Vero cells/IC50 MIA PaCa-2) and potentiation factor (PF50) at 50% growth inhibition (IC50) were also determined. The PF50 is the IC50 value of free drug divided by the IC50 value obtained from a combination of drugs, which is the polymer drug conjugate in this case.” left out, “A p < 0.05 was considered to be statistically significant.” left out

Series [2] deals with MIA PaCa-2 cells. As to the kind of experiment: Annexin V-FITC / propidium iodide apoptosis detection by flow cytometry. It counts as cell-based, human. Conditions: 4 µM, 72 h. The protocol: The mode of cell death induced by the BA and PEG–BA on MIA PaCa-2 and Vero cells was assessed using the Annexin V-FITC Apoptosis kit I (BD Biosciences, San Diego, CA, USA). The assay was performed per the manufacturer’s protocol and as previously described with slight modifications. The cells were analysed for apoptosis and necrosis after acquiring 30,000 events using a BD LSRFortessa™ Analyser (BD Biosciences, San Diego, CA, USA). The BD FACSDiva software was used to detect fluorescein isothiocyanate (FITC) positive signals for apoptotic cells (Annexin-v positive) on a 530/30 filter and peridinin–chlorophyll–protein (PerCP) positive signals for necrotic cells (propidium iodide positive) on a 610/20 band pass filter. Apoptosis was determined at three different concentrations around the IC50, 1, 1.7 and 4 µM. Doxorubicin (0.2 ug/mL) was used as a positive control for apoptosis induction. The data were exported as flow cytometry standard (FCS) files and analysed using FlowJo software Version 10 (FlowJo, LLC, Ashland, OR, USA). The data were exported and represented as means ± standard error of three independent experiments using GraphPad Prism 6.
For orientation: In flow cytometry, cells or beads pass a laser one at a time.

Series [3] is described as follows: MTT cytotoxicity assay on PBMCs. It is filed as cell-based, human. The conditions noted are these: human, peripheral blood mononuclear cells (PBMCs), n = 4, read-out: PBMC viability. The protocol: (§2) The supernatant obtained from PBMCs (1 × 10^6 cells/mL) treated and incubated (72 h, 37 °C, 5% CO2, 95% humidity) with BA and PEG–BA (3 µM) were used for this assay. Cytotoxicity was performed on isolated PBMCs (see Supplementary Materials for isolation protocol) using the 3-(4,5-dimethylthiazol-2-yl)-2,5-diphenyl tetrazolium bromide (MTT) assay as previously described. For the cytometric bead array (CBA) assay, the PBMCs were isolated from both consenting PC patients (n = 4) and healthy control donors (n = 2). Ethics clearance to collect blood samples was obtained from the Human Research Ethics Committee (Medical) of the University of the Witwatersrand (M170440). The PBMCs were stimulated with 2 µg/mL of phytohaemagglutinin-protein (PHA-P). After the 72 h incubation period, the cells and medium were transferred to 5 mL Falcon® round-bottom polypropylene tubes and centrifuged at 433× g for 5 min at room temperature. Aliquots of the cell-free supernatant were collected and stored at −80 °C until needed for experiments.

For series [4], the system named is peripheral blood mononuclear cells (PBMCs). Description: MTT cytotoxicity assay on PBMCs. It is filed as cell-based, human. The conditions noted are these: 3 µM. The protocol: as §2
A further series relates to IL-6. Description: Cytometric bead array Th1/Th2/Th17, IL-6 in supernatant of PHA-P stimulated PBMCs. It is filed as cell-based, human. Conditions: 3 µM, 72 h. The protocol:
as §2, with “After the 72 h incubation period, the cells and medium were transferred to 5 mL Falcon® round-bottom polypropylene tubes and centrifuged at 433× g for 5 min at room temperature. Aliquots of the cell-free supernatant were collected and stored at −80 °C until needed for experiments.” left out
The CBA Th1/Th2/Th17 assay was performed according to the manufacturer’s instructions (BD Biosciences, La Jolla, San Diego, CA, USA) and as previously described, but with minor modifications. […] Specific fluorescence associated with each bead population was detected using flow cytometry allowing for the identification of the various cytokines in the sample. […] Acquired FCS files were analysed using a flow cytometric analysis software (FCAPArray™) from BD Biosciences. Interferon-gamma (IFN-γ), TNF-α, IL-2, IL-4, IL-6, IL-10 and IL-17A concentrations were all determined from standard curves. […]

By IC50 is commonly meant the concentration at which inhibition is half-maximal. For orientation: viability means the share of living cells, or the viability signal relative to a control. For the compound `C=C(C)[C@@H]1CC[C@]2(C(=O)O)CC[C@]3(C)[C@H](CC[C@@H]4[C@@]5(C)CC[C@H](O)C(C)(C)[C@@H]5CC[C@]43C)[C@@H]12` [BA, betulinic acid], the IC50 was found to be 12.7 ± 0.34 µM in the series with MIA PaCa-2 cells [1] (Homo sapiens, MIA PaCa-2 cells, XTT) and 18.2 ± 0.09 µM in the series on Vero cells (Primates, XTT). The “selectivity index (SI) (IC50 Vero cells/IC50 MIA PaCa-2)” value in the series on MIA PaCa-2 cells [1] (Vero vs MIA PaCa-2, XTT) is 1.4 and 1.43. The “highest apoptotic effect (mainly late-apoptotic phase)” value in the series on MIA PaCa-2 cells [2] was determined as 31.43 ± 16.7%. For the same compound, the viability at 72 h, 3 µM in series [3] is 9.2 ± 0.8%. Further, the “cytotoxicity on PBMCs” value in series [4] came out at 49.2 ± 0.8%. The IL-6 concentration in the series with IL-6 (PBMCs of PC patients (n = 4), average) is 5430.94 pg/mL; with IL-6 (PBMCs of control participants (n = 2)), 396.24 pg/mL.
Consider `COc1cccc2c1C(=O)c1c(O)c3c(c(O)c1C2=O)C[C@@](O)(C(=O)CO)C[C@@H]3O[C@H]1C[C@H](N)[C@H](O)[C@H](C)O1` [Doxorubicin], for which the “cell death (cytotoxicity)” value in the series with MIA PaCa-2 cells [1] (MIA PaCa-2 cells, 0.2 µg/mL (0.4 µM)) is reported as 83.3 ± 1.6%; in the series on Vero cells (0.2 µg/mL (0.4 µM)) it was 43.24 ± 14.2%.
